According to US4196205A, “3-Acetoxymethyl-7-(iminoacetamido)-cephalosporanic acid derivatives” (priority 1976, dated 1980):
Values after ≈ are worked out from the molar mass of the structure shown. Where two headings read alike, the source gives them in different places.

Columns and labels:
Experiment in all cases: MIC, dilution in liquid medium
Assay type in all cases: cell-based
[1] = tested on: Escherichia Coli Resistant Gentamicine, Tobramycine R 55 123 D; settings: Escherichia coli, read-out: M.I.C.
Procedure: (§1) The method used was a dilution of a liquid medium where a series of tubes received the same quantity of a sterile nutritive media and increasing doses of the test compounds were placed therein. Then each tube was seeded with a bacterial strain and was incubated for 24 to 48 hours at 37° C. in an oven. The increasing inhibition was determined by transillumination to determine the minimum inhibiting concentration (MIC in […]) and the results are reported in the following Tables.

[2] = tested on: Staphylococcus aureus UC 1 128 Pen-Resistant; settings: Staphylococcus aureus
Procedure: as §1

[3] = tested on: Bacillus subtilis ATCC 6 633; settings: Bacillus subtilis
Procedure: as §1

[4] = tested on: Escherichia Coli Sensible Tetracycline ATCC 9 637 = 1020; settings: Escherichia coli
Procedure: as §1

[5] = tested on: Streptococcus faecalis 5 432
Procedure: as §1

[6] = tested on: Streptococcus pyogenes A 561; settings: Streptococcus pyogenes, read-out: M.I.C.
Procedure: as §1

[7] = tested on: Salmonella typhimurium 420; settings: Salmonella enterica, TYPHIMURIUM
Procedure: as §1

[8] = tested on: Klebsiella pneumoniae 2 536 Resistant Gentamicine; settings: Klebsiella pneumoniae
Procedure: as §1

[9] = tested on: Klebsiella pneumoniae Exp. 52 145; settings: Klebsiella pneumoniae
Procedure: as §1

[10] = tested on: Serratia Resistant Gentamicine 2 532
Procedure: as §1

[11] = tested on: Providencia Du 48; settings: Providencia
Procedure: as §1

[12] = tested on: Escherichia Coli Resistant Tetracycline ATCC 11 303 = UC 1261; settings: Escherichia coli
Procedure: as §1

[13] = tested on: Enterobacter cloacae 681
Procedure: as §1

[14] = tested on: Staphylococcus aureus ATCC 5 638 Pen-Sensible = UC 1061
Procedure: as §1

[15] = tested on: Streptococcus faecalis 99 F 74; settings: Enterococcus faecalis
Procedure: as §1

[16] = tested on: Staphylococcus aureus exp. n° 54 146; settings: Staphylococcus aureus
Procedure: as §1

[17] = tested on: Proteus mirabilis (indol-) A 235; settings: Proteus mirabilis, read-out: M.I.C.
Procedure: as §1

[18] = tested on: Escherichia Coli Exp. TO26 B6; settings: Escherichia coli
Procedure: as §1

[19] = Enterococcus faecalis, 5432, 24 h, 24 H
[20] = Enterococcus faecalis, 5432, 48 h, 48 H
[21] = Enterobacter cloacae, 681, 24 h

CC(=O)OCC1=C(C(=O)O)N2C(=O)C(NC(=O)/C(=N\O)c3csc(N)n3)C2SC1 (stereo not drawn) [Example 28, syn isomer of 7-[2-(2-amino-4-thiazolyl)-2-hydroxyiminoacetamido]-3-acetoxymethyl-ceph-3-eme-4-carboxylic acid]
MIC ([1]; 24 h): 0.2 mg/L (≈ 0.453 µM) | MIC ([1]; 48 h): 0.2 mg/L (≈ 0.453 µM) | MIC ([2]; UC1, 24 h, 24 H): 1 mg/L (≈ 2.27 µM) | MIC ([2]; UC1, 48 h, 48 H): 1 mg/L (≈ 2.27 µM) | MIC ([3]; ATCC6, 24 h, 24 H, read-out: M.I.C.): 0.5 mg/L (≈ 1.13 µM) | MIC ([3]; ATCC6, 48 h, 48 H): 1 mg/L (≈ 2.27 µM) | MIC ([4]; ATCC9, 24 h, 24 H): 0.05 mg/L (≈ 0.113 µM) | MIC ([4]; ATCC9, 48 h, 48 H): 0.1 mg/L (≈ 0.227 µM) | MIC [5, 19]: 5 mg/L (≈ 11.3 µM) | MIC [5, 20]: 5 mg/L (≈ 11.3 µM) | MIC ([6]; A561, 24 h, 24 H): 0.02 mg/L (≈ 0.0453 µM) | MIC ([6]; A561, 48 h, 48 H): 0.02 mg/L (≈ 0.0453 µM) | MIC ([7]; 24 h, read-out: M.I.C.): 0.1 mg/L (≈ 0.227 µM) | MIC ([7]; 48 h): 0.1 mg/L (≈ 0.227 µM) | MIC ([8]; 24 h, read-out: M.I.C.): 0.2 mg/L (≈ 0.453 µM) | MIC ([8]; 48 h, read-out: M.I.C.): 0.5 mg/L (≈ 1.13 µM) | MIC ([9]; EXP.52145, 24 h, 24 H): 0.05 mg/L (≈ 0.113 µM) | MIC ([9]; EXP.52145, 48 h, 48 H): 0.1 mg/L (≈ 0.227 µM) | MIC ([10]; 24 h): 5 mg/L (≈ 11.3 µM) | MIC ([10]; 48 h, read-out: M.I.C.): 10 mg/L (≈ 22.7 µM) | MIC ([11]; DU48, 24 h, 24 H): 2 mg/L (≈ 4.53 µM) | MIC ([11]; DU48, 48 h, 48 H): 2 mg/L (≈ 4.53 µM) | MIC ([12]; 24 h): 0.1 mg/L (≈ 0.227 µM) | MIC ([12]; 48 h): 0.1 mg/L (≈ 0.227 µM) | MIC [13, 21]: 5 mg/L (≈ 11.3 µM) | MIC ([13]; Enterobacter cloacae, 681, 48 h, read-out: M.I.C.): 10 mg/L (≈ 22.7 µM) | MIC ([14]; 24 h, read-out: M.I.C.): 0.5 mg/L (≈ 1.13 µM) | MIC ([14]; 48 h, read-out: M.I.C.): 0.5 mg/L (≈ 1.13 µM) | MIC ([15]; 99F74, 24 h, read-out: M.I.C.): 10 mg/L (≈ 22.7 µM) | MIC ([15]; 99F74, 48 h, 48 H): 40 mg/L (≈ 90.6 µM) | MIC ([16]; 24 h): 1 mg/L (≈ 2.27 µM) | MIC ([16]; 48 h): 1 mg/L (≈ 2.27 µM) | MIC ([17]; 24 h): 0.1 mg/L (≈ 0.227 µM) | MIC ([17]; 48 h): 0.2 mg/L (≈ 0.453 µM) | MIC ([18]; 24 h): 0.05 mg/L (≈ 0.113 µM) | MIC ([18]; 48 h): 0.1 mg/L (≈ 0.227 µM)

C=CO/N=C(\C(=O)NC1C(=O)N2C(C(=O)O)=C(COC(C)=O)CSC12)c1csc(N)n1 (stereo not drawn) [Product B, syn isomer of 3-acetoxymethyl-7-[2-(2-amino-4-thiazolyl)-2-vinyloxyimino-acetamido]-ceph-3-eme-4-carboxylic acid]
MIC ([1]; 24 h): 0.5 mg/L (≈ 1.07 µM) | MIC ([1]; 48 h): 0.5 mg/L (≈ 1.07 µM) | MIC ([2]; UC1, 24 h, 24 H): 1 mg/L (≈ 2.14 µM) | MIC ([2]; UC1, 48 h, 48 H): 1 mg/L (≈ 2.14 µM) | MIC ([3]; ATCC6, 24 h, 24 H): 2 mg/L (≈ 4.28 µM) | MIC ([3]; ATCC6, 48 h, 48 H): 5 mg/L (≈ 10.7 µM) | MIC ([4]; ATCC9, 24 h, 24 H, read-out: M.I.C.): 0.5 mg/L (≈ 1.07 µM) | MIC ([4]; ATCC9, 48 h, 48 H, read-out: M.I.C.): 0.5 mg/L (≈ 1.07 µM) | MIC [5, 19]: 3 mg/L (≈ 6.42 µM) | MIC [5, 20]: 5 mg/L (≈ 10.7 µM) | MIC ([6]; A561, 24 h, 24 H): ≤ 0.02 mg/L | MIC ([6]; A561, 48 h, 48 H): ≤ 0.02 mg/L | MIC ([7]; 24 h, read-out: M.I.C.): 0.5 mg/L (≈ 1.07 µM) | MIC ([7]; 48 h, read-out: M.I.C.): 0.5 mg/L (≈ 1.07 µM) | MIC ([8]; 24 h): 1 mg/L (≈ 2.14 µM) | MIC ([8]; 48 h): 2 mg/L (≈ 4.28 µM) | MIC ([9]; EXP.52145, 24 h, 24 H, read-out: M.I.C.): ≤ 0.02 mg/L | MIC ([9]; EXP.52145, 48 h, 48 H, read-out: M.I.C.): ≤ 0.02 mg/L | MIC ([10]; 24 h): 1 mg/L (≈ 2.14 µM) | MIC ([10]; 48 h): 2 mg/L (≈ 4.28 µM) | MIC ([11]; DU48, 24 h, 24 H): 2 mg/L (≈ 4.28 µM) | MIC ([11]; DU48, 48 h, 48 H): 2 mg/L (≈ 4.28 µM) | MIC ([12]; 24 h, read-out: M.I.C.): 0.05 mg/L (≈ 0.107 µM) | MIC ([12]; 48 h, read-out: M.I.C.): 0.95 mg/L (≈ 2.03 µM) | MIC [13, 21]: 3 mg/L (≈ 6.42 µM) | MIC ([13]; Enterobacter cloacae, 681, 48 h): 5 mg/L (≈ 10.7 µM) | MIC ([14]; 24 h): 1 mg/L (≈ 2.14 µM) | MIC ([14]; 48 h): 1 mg/L (≈ 2.14 µM) | MIC ([15]; 99F74, 24 h, 24 H): 5 mg/L (≈ 10.7 µM) | MIC ([15]; 99F74, 48 h, read-out: M.I.C.): 10 mg/L (≈ 21.4 µM) | MIC ([16]; 24 h): 1 mg/L (≈ 2.14 µM) | MIC ([16]; 48 h): 2 mg/L (≈ 4.28 µM) | MIC ([17]; 24 h): ≤ 0.02 mg/L | MIC ([17]; 48 h): ≤ 0.02 mg/L | MIC ([18]; 24 h): 0.2 mg/L (≈ 0.428 µM) | MIC ([18]; 48 h): 0.2 mg/L (≈ 0.428 µM)
